One assay relates to HU09. Kind of assay: cells. Also on record: 72 h cell growth/viability dose-response in pediatric solid tumour lines and primary fibroblasts. The note with it: Fibroblast, 72 h; read-out: P3FI-63 EC50 (72 hr). The text has this: (§1) The half-maximal effective concentrations (EC50) of P3FI-63 on FP-RMS cell lines RH4, RH30, and SCMC were in the single digit µM range (Fig. 1E). Next, we tested other pediatric solid cancer lines to determine broader applicability of P3FI-63.

Another assay deals with OSA. The assay is described as follows: cells. The following applies: Fibroblast, 72 h; read-out: P3FI-63 EC50 (72 hr). Also on record: 72 h cell growth/viability dose-response in pediatric solid tumour lines and primary fibroblasts.
From the text: as §1

Another assay relates to 7250. Kind of assay: cells. The arrangement: 72 h cell growth/viability dose-response in pediatric solid tumour lines and primary fibroblasts. The note with it: 72 h, primary human fibroblast; read-out: P3FI-63 EC50 (72 hr), fibroblast.
From the text: as §1

The next assay concerns A673. The assay is described as follows: cells. Also on record: 72 h cell growth/viability dose-response in pediatric solid tumour lines and primary fibroblasts. The note with it: Homo sapiens, A673, 72 h; read-out: P3FI-63 EC50 (72 hr).
From the text: as §1

The next assay has as its system TC-32. Kind of assay: cells. Also on record: 72 h cell growth/viability dose-response in pediatric solid tumour lines and primary fibroblasts. The following applies: Homo sapiens, TC-32, 72 h; read-out: P3FI-63 EC50 (72 hr).
From the text: as §1

Another assay relates to CTR. Kind of assay: cells. Also on record: 72 h cell growth/viability dose-response in pediatric solid tumour lines and primary fibroblasts. The note with it: Fibroblast, 72 h; read-out: P3FI-63 EC50 (72 hr).
From the text: as §1

Assay [1] deals with T1, KDM3B (Homo sapiens, UniProt Q7LBC6). Kind of assay: cell-free TR-FRET demethylase inhibition assay (Eurofins). The assay is classed as biochemical. (In general: Time-resolved FRET reads energy transfer from a long-lived donor to a nearby acceptor.)
T1 sequence (Q7LBC6 2-1761): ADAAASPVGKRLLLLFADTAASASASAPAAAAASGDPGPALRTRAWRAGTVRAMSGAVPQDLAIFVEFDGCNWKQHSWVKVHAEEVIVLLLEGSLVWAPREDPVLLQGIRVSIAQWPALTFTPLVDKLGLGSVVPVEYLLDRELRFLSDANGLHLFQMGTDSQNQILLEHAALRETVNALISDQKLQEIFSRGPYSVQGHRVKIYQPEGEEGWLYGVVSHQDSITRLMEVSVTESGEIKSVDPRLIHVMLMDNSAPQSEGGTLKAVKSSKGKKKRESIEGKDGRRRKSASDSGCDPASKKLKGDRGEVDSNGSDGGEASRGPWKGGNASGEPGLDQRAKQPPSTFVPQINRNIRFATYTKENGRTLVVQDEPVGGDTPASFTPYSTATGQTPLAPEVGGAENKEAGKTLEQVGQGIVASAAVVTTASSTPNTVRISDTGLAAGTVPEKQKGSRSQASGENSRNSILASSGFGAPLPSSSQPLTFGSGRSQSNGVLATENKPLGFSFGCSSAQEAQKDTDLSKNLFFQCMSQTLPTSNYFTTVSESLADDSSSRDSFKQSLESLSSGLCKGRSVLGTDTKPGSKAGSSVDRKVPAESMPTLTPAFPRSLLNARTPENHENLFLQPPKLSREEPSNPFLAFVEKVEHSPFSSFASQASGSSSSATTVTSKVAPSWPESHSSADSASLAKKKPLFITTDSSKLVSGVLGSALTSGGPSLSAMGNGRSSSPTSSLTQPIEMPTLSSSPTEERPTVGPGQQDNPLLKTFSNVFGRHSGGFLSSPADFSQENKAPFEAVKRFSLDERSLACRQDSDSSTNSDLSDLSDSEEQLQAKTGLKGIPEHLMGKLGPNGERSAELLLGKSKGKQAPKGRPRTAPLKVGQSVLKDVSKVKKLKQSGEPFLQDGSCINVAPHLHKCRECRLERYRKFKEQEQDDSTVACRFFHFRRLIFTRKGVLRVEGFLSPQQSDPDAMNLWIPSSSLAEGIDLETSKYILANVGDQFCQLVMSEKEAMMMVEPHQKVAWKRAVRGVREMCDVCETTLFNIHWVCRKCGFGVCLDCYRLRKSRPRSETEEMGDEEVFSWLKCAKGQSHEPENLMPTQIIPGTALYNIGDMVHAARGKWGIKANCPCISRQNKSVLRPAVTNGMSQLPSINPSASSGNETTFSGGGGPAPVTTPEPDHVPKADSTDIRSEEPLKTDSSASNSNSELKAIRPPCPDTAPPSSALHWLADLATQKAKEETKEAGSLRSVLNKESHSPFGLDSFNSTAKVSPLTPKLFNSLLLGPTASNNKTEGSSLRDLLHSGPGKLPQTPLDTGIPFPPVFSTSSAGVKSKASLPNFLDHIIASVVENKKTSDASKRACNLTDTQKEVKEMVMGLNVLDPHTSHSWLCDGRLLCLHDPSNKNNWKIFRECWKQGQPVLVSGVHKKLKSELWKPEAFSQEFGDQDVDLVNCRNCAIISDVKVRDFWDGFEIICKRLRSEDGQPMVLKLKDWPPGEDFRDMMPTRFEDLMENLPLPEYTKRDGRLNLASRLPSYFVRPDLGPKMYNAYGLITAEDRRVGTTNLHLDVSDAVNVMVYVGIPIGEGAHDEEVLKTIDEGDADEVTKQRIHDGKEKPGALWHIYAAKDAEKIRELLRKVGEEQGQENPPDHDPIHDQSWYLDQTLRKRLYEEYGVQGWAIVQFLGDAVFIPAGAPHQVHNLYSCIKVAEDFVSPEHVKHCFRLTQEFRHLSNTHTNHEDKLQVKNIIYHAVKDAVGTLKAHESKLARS
Assay [2] concerns the target T1, KDM3B. Kind of assay: SPR (Biacore T200); also WaterLOGSY and CPMG ligand-observed NMR, and enzyme inhibition (TR-FRET). The arrangement: full-length KDM3B (His6-Avi-KDM3B) for SPR; enzymatic domain (truncated) for NMR. The assay is classed as binding. In general terms: In SPR one partner is held on a chip, and binding of the other changes the refractive index at the surface.

Molecules are shown by their SMILES. pEC50, pIC50, pKd: −log10 of the molar value.

For orientation: pEC50 means the negative decadic logarithm of the EC50, by convention in mol/L. As usually defined, the pIC50 is the negative decadic logarithm of the IC50, by convention in mol/L. Higher therefore signals a small IC50. As usually defined, the pKd is the Kd on a negative log10 scale, so that one unit is a factor of ten. Read a low pKd as a large Kd.

Consider `Cc1cc(C)cc(C(=O)NNC(=O)c2ccccn2)c1` [P3FI-63], for which the pEC50 in the assay on HU09 was 5.51; with OSA, 5.12; in the assay with 7250, 5.18; with A673 it was 5.43; in the assay on TC-32 it was 5.77; in the assay on CTR, 5.53. In addition, at KDM3B [1], the negative-log IC50 (pIC50) was 5.15.

In turn, `O=C(NNc1ccccn1)c1ccccn1` [P3FI-90] had a pKd on KDM3B [2] of 5.11.

Values taken from paper PMC10894237, “KDM3B inhibitors disrupt the oncogenic activity of PAX3-FOXO1 in fusion-positive rhabdomyosarcoma” (Nature Communications, 2024).
